This note sets out measurements from PMC10308680 (Journal of Biomedical Science, 2023).

Several values for one entry are separate records, joined by “and”; a condition that tells them apart may be missing. Equal values may be shown once.

Experiment [1] deals with CD28/B7-2 (cell-surface B7-2). It is filed as cell-based, human.
In a further experiment the test system is B7-2/CD28. Format: cell-based, human.

Turning to ASMDYPVL [p2TAsc], the “inhibition of binding of soluble CD28 to cell-surface B7-2” value in experiment [1] is “abrogated the ability of p2TA to inhibit binding of CD28 to cell-surface B7-2”. Besides, in the experiment on B7-2/CD28, the “Per cent doubly labeled cells (B7-2/CD28)” value is 8.4% and 9.0% and 8.6%; the “attenuation of intercellular B7-2/CD28 engagement (in words)” value was “fails to attenuate intercellular B7-2/CD28 engagement”.
